Assays:
Assay type in all cases: in vivo
Settings in all cases: post-emergence spray, evaluated after 13 days
[1] = tested on: Amaranthus retroflexus (AMARE); assay: Post-emergence efficacy, Amaranthus retroflexus
Procedure: (§1) B1 Post-Emergence Efficacy
(§2) Seeds of a variety of test species are shown in standard soil in pots:—Solanum nigrum (SOLNI), Amaranthus retroflexus (AMARE), Setaria faberi (SETFA), Echinochloa crus-galli (ECHCG), Ipomoea hederacea (IPOHE), Lolium perenne (LOLPE). After 8 days cultivation (post-emergence) under controlled conditions in a glasshouse (at 24/16° C., day/night; 14 hours light; 65% humidity), the plants are sprayed with an aqueous spray solution derived from the formulation of the technical active ingredient in acetone/water (50:50) solution containing 0.5% Tween 20 (polyoxyethylene sorbitan monolaurate, CAS RN 9005-64-5). Compounds are applied at 1000 and 62.5 g/ha. The test plants are then grown in a glasshouse under controlled conditions in a glasshouse (at 24/16° C., day/night; 14 hours light; 65% humidity) and watered twice daily. After 13 days, the test is evaluated for the percentage damage caused to the plant. The biological activities are assessed on a five point scale (5=80-100%; 4=60-79%; 3=40-59%; 2=20-39%; 1=0-19%).

[2] = tested on: Solanum nigrum (SOLNI); assay: Post-emergence efficacy, Solanum nigrum
Procedure: as §1, §2

[3] = tested on: Setaria faberi (SETFA); assay: Post-emergence efficacy, Setaria faberi
Procedure: as §1, §2

[4] = tested on: Lolium perenne (LOLPE); assay: Post-emergence efficacy, Lolium perenne
Procedure: as §1, §2

[5] = tested on: Echinochloa crus-galli (ECHCG); assay: Post-emergence efficacy, Echinochloa crus-galli
Procedure: as §1, §2

[6] = tested on: Ipomoea hederacea (IPOHE); assay: Post-emergence efficacy, Ipomoea hederacea
Procedure: as §1, §2

Cc1nn(C)c(=O)c(-c2c(Cl)ccc(Cl)c2OCc2ccnc(Cl)c2)c1O [Compound 1.14]
3 (3=40-59%): LOLPE percentage damage caused to the plant (five point scale) ([4]; 62.5 g/ha)
4 (4=60-79%): SOLNI percentage damage caused to the plant (five point scale) ([2]; 62.5 g/ha) | SETFA percentage damage caused to the plant (five point scale) ([3]; 62.5 g/ha) | ECHCG percentage damage caused to the plant (five point scale) ([5]; 62.5 g/ha)
5 (5=80-100%): AMARE percentage damage caused to the plant (five point scale) ([1]; 62.5 g/ha) | AMARE percentage damage caused to the plant (five point scale) ([1]; 1000 g/ha) | SOLNI percentage damage caused to the plant (five point scale) ([2]; 1000 g/ha) | SETFA percentage damage caused to the plant (five point scale) ([3]; 1000 g/ha) | LOLPE percentage damage caused to the plant (five point scale) ([4]; 1000 g/ha) | ECHCG percentage damage caused to the plant (five point scale) ([5]; 1000 g/ha) | IPOHE percentage damage caused to the plant (five point scale) ([6]; 62.5 g/ha) | IPOHE percentage damage caused to the plant (five point scale) ([6]; 1000 g/ha)

Cc1nc(COc2c(Cl)ccc(F)c2-c2c(O)c(C)nn(C)c2=O)cs1 [Compound 1.33]
3 (3=40-59%): AMARE percentage damage caused to the plant (five point scale) ([1]; 62.5 g/ha) | ECHCG percentage damage caused to the plant (five point scale) ([5]; 62.5 g/ha)
5 (5=80-100%): AMARE percentage damage caused to the plant (five point scale) ([1]; 1000 g/ha) | SOLNI percentage damage caused to the plant (five point scale) ([2]; 1000 g/ha) | SETFA percentage damage caused to the plant (five point scale) ([3]; 1000 g/ha) | IPOHE percentage damage caused to the plant (five point scale) ([6]; 1000 g/ha)
2 (2=20-39%): SETFA percentage damage caused to the plant (five point scale) ([3]; 62.5 g/ha) | LOLPE percentage damage caused to the plant (five point scale) ([4]; 62.5 g/ha)
4 (4=60-79%): SOLNI percentage damage caused to the plant (five point scale) ([2]; 62.5 g/ha) | LOLPE percentage damage caused to the plant (five point scale) ([4]; 1000 g/ha) | ECHCG percentage damage caused to the plant (five point scale) ([5]; 1000 g/ha) | IPOHE percentage damage caused to the plant (five point scale) ([6]; 62.5 g/ha)

CC1=NN(C)C(=O)C(c2c(Cl)ccc(Cl)c2OCc2cnc(Cl)s2)C1=O (stereo not drawn) [Compound 1.19, 4-[3,6-dichloro-2-[(2-chlorothiazol-5-yl)methoxy]phenyl]-2,6-dimethyl-pyridazine-3,5-dione]
5 (5=80-100%): AMARE percentage damage caused to the plant (five point scale) ([1]; 62.5 g/ha) | AMARE percentage damage caused to the plant (five point scale) ([1]; 1000 g/ha) | SOLNI percentage damage caused to the plant (five point scale) ([2]; 62.5 g/ha) | SOLNI percentage damage caused to the plant (five point scale) ([2]; 1000 g/ha) | SETFA percentage damage caused to the plant (five point scale) ([3]; 62.5 g/ha) | SETFA percentage damage caused to the plant (five point scale) ([3]; 1000 g/ha) | LOLPE percentage damage caused to the plant (five point scale) ([4]; 62.5 g/ha) | LOLPE percentage damage caused to the plant (five point scale) ([4]; 1000 g/ha) | ECHCG percentage damage caused to the plant (five point scale) ([5]; 1000 g/ha) | IPOHE percentage damage caused to the plant (five point scale) ([6]; 62.5 g/ha) | IPOHE percentage damage caused to the plant (five point scale) ([6]; 1000 g/ha)
3 (3=40-59%): ECHCG percentage damage caused to the plant (five point scale) ([5]; 62.5 g/ha)

Cc1nn(C)c(=O)c(-c2c(Cl)ccc(Cl)c2OCc2cncs2)c1O [Compound 1.06]
5 (5=80-100%): AMARE percentage damage caused to the plant (five point scale) ([1]; 1000 g/ha) | SOLNI percentage damage caused to the plant (five point scale) ([2]; 62.5 g/ha) | SOLNI percentage damage caused to the plant (five point scale) ([2]; 1000 g/ha) | SETFA percentage damage caused to the plant (five point scale) ([3]; 62.5 g/ha) | SETFA percentage damage caused to the plant (five point scale) ([3]; 1000 g/ha) | LOLPE percentage damage caused to the plant (five point scale) ([4]; 1000 g/ha) | ECHCG percentage damage caused to the plant (five point scale) ([5]; 62.5 g/ha) | ECHCG percentage damage caused to the plant (five point scale) ([5]; 1000 g/ha) | IPOHE percentage damage caused to the plant (five point scale) ([6]; 62.5 g/ha) | IPOHE percentage damage caused to the plant (five point scale) ([6]; 1000 g/ha)
4 (4=60-79%): AMARE percentage damage caused to the plant (five point scale) ([1]; 62.5 g/ha) | LOLPE percentage damage caused to the plant (five point scale) ([4]; 62.5 g/ha)
